In US20260184697A1, “EZH1/2 INHIBITOR, PREPARATION THEREOF, AND USE THEREOF IN ANTI-TUMOR THERAPY” (JIANGSU TASLY DIYI PHARMACEUTICAL CO., LTD., priority 2022, published 2026):

Each compound was assayed against T1, EZH2/SUZ/EED (Homo sapiens, UniProt O75530+Q15022+Q15910) (assay: Inhibitory effect on EZH2 by the MTase-Glo method (Test Example 1)). Settings: EZH2/SUZ/EED 6.25 nM, H3 peptide 10 μM, SAM 3 μM, 30° C. 3 h, read-out: Test Example 1 WT EZH2 IC50.
T1 construct: purchased BPS 51003
Type: biochemical
Description: (§1) The compound was dissolved in DMSO, and the compound was serially diluted using ECHO665 and transferred to a 384-well reaction plate (Corning, 3824). A sample containing only DMSO was added as a positive control (maximum signal control) and a negative control (minimum signal control), while ensuring that the final DMSO content in each reaction well was 0.5%. The protein was configured in reaction buffer (50 mM Bicine, 0.01% Triton X-100, 1 mM DTT, 0.01% BSA, pH 7.6), such that the final reaction concentrations of EZH2/SUZ/EED (BPS, 51003) protein solution and EZH1/SUZ/EED (BPS, 51006) were 6.25 nM and 25 nM, respectively. The negative control (minimum signal control) used an equal amount of buffer instead of protein solution. The prepared protein solution was added to the 384-well reaction plate and pre-incubated at room temperature for 15 minutes. The mixture of the substrate H3 peptide fragment (custom-synthesized by GenScript, biotinylated Histone H3(21-44) peptide ([…]-GG-K(Biotin)-OH)) prepared in the reaction buffer and SAM (Promega, V7601) was added into the 384-well plate, such that the final reaction concentration of H3 peptide fragment was 10 μM, and the final concentration of SAM was 3 μM. The mixture was centrifuged at 1000 rpm for 1 min. The 384-well reaction plate was placed in a constant temperature shaker and incubate at 30° C. for 3 h at a speed of 300 rpm. Then the detection reagent was added according to the experimental process of the kit MTase-Glo (Promega, V7601) and incubated.
(§2) After incubation, read with BMG PHERAStar. The luminescence signals obtained by positive control (maximum signal control) and negative control (minimum signal control) were normalized to obtain the inhibition rate of different concentrations of compounds. Then, the IC50 of the compound on the enzyme activity inhibition was calculated by GraphPad Prism 6 with log(inhibitor) vs. response-Variable slope model fitting. The fitting equation is: Y=Bottom+(Top−Bottom)/(1+10^((Log IC50−X)*HillSlope)), wherein Y represents the known percentage remaining enzyme activity, and X represents the known activity after Log compound concentration.

T1 sequence (Q15910 2-746 limits assumed): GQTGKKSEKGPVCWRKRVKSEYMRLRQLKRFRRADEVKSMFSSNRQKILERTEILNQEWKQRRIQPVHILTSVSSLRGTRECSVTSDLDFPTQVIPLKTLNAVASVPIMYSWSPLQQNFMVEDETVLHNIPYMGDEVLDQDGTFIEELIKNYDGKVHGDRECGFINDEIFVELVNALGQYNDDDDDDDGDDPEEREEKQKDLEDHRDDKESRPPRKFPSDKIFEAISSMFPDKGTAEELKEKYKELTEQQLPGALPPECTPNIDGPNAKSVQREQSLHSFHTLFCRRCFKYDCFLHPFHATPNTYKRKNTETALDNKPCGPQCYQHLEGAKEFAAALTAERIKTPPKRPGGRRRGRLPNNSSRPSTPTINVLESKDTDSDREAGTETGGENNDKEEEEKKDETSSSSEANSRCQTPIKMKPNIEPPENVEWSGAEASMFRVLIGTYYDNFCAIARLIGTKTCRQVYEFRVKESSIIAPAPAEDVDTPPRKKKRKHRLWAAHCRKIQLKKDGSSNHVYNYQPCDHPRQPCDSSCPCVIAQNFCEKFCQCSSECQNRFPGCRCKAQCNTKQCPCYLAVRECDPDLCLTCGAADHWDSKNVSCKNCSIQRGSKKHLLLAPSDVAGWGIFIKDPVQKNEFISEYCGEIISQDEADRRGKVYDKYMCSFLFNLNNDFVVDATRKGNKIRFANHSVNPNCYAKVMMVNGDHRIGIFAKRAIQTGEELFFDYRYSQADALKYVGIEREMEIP
T1 sequence (Q15022 2-739 partner limits assumed): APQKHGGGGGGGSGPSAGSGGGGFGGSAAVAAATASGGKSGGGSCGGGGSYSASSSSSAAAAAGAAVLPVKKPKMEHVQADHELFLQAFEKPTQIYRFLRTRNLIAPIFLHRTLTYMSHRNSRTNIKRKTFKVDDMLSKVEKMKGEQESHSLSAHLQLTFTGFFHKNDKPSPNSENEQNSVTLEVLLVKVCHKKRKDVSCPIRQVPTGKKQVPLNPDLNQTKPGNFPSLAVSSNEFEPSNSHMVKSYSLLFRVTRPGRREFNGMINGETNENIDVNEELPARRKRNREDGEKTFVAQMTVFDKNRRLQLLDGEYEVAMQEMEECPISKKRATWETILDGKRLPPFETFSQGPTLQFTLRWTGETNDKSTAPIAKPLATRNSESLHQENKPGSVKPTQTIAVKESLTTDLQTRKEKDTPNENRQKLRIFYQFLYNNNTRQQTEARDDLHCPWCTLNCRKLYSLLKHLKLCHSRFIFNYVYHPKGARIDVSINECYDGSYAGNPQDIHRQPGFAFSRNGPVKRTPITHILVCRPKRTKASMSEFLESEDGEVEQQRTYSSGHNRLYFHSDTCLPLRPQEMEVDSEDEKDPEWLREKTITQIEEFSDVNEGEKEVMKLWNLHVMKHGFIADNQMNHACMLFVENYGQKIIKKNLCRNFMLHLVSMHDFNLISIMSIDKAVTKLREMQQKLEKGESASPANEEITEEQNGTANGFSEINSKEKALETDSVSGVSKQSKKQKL
T1 sequence (O75530 2-441 partner limits assumed): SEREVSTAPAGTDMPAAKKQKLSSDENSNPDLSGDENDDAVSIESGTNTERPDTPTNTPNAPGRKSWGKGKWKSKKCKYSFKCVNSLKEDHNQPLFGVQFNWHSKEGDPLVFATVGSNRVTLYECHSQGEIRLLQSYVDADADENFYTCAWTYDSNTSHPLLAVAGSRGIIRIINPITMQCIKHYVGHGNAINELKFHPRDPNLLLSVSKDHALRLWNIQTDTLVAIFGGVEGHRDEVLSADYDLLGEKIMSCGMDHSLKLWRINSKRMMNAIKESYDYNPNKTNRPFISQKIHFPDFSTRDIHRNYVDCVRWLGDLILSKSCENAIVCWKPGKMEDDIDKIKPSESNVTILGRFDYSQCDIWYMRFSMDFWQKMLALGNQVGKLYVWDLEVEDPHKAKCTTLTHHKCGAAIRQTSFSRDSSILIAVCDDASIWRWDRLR

Row | Compound | IC50 [nM]
1 | Cc1cc(C)c(CNC(=O)c2cc(Cl)c3c(c2C)O[C@H](C2CCN(C4COC4)CC2)CO3)c(=O)[nH]1 [Compound 89] | 1840
2 | Cc1cc(C)c(CNC(=O)c2cc(Cl)c3c(c2C)O[C@@H](C2CCN(CC4CC4)CC2)CO3)c(=O)[nH]1 [Compound 90] | 18.6
3 | COc1cc(C)[nH]c(=O)c1CNC(=O)c1cc(Cl)c2c(c1C)O[C@@H]([C@H]1CC[C@@H](N3CC4COCC4C3)CC1)CO2 (stereo partly drawn) [Compound 95] | 11.6
4 | COc1cc(C)[nH]c(=O)c1CNC(=O)c1cc(Cl)c2c(c1C)O[C@H]([C@H]1CC[C@H](N3CC(OC)C3)CC1)CO2 [Compound 99] | 93.4
5 | COCCOC1CN([C@H]2CC[C@H]([C@H]3COc4c(Cl)cc(C(=O)NCc5c(OC)cc(C)[nH]c5=O)c(C)c4O3)CC2)C1 [Compound 102] | 2.6
6 | COc1cc(C)[nH]c(=O)c1CN(C)C(=O)c1cc(Cl)c2c(c1C)O[C@@H]([C@H]1CC[C@@H](N(C)C)CC1)CO2 [Compound 129] | 3.9

The remaining lines, values ahead:

Row | IC50 [nM] | Compound
7 | 6 | CON=C1CCC([C@H]2COc3c(Cl)cc(C(=O)NCc4c(C)cc(C)[nH]c4=O)c(C)c3O2)CC1 (stereo partly drawn) [Compound 93]
8 | 7 | COc1cc(C)[nH]c(=O)c1CNC(=O)c1cc(Cl)c2c(c1C)O[C@@H]([C@H]1CC[C@H](N3CC4COCC4C3)CC1)CO2 (stereo partly drawn) [Compound 96]
9 | 128 | COc1cc(C)[nH]c(=O)c1CNC(=O)c1cc(Cl)c2c(c1C)O[C@H]([C@H]1CC[C@@H](N3CC(OC)C3)CC1)CO2 [Compound 100]
10 | 5 | COCCN(C)[C@H]1CC[C@H]([C@H]2COc3c(Cl)cc(C(=O)NCc4c(OC)cc(C)[nH]c4=O)c(C)c3O2)CC1 [Compound 108]
11 | 13.4 | COc1cc(C)[nH]c(=O)c1CNC(=O)c1cc(Cl)c2c(c1C)O[C@@H]([C@H]1CC[C@@H](N3CC4(CC4)C3)CC1)CO2 [Compound 111]
12 | 25.5 | Cc1cc(C)c(CN(C)C(=O)c2cc(Cl)c3c(c2C)O[C@@H]([C@H]2CC[C@@H](N(C)C)CC2)CO3)c(=O)[nH]1 [Compound 127]

The compounds below were run against T2, EZH1/SUZ/EED (Homo sapiens, UniProt O75530+Q15022+Q92800) (assay: Inhibitory effect on EZH1 by the MTase-Glo method (Test Example 1)). Settings: EZH1/SUZ/EED 25 nM, H3 peptide 10 μM, SAM 3 μM, 30° C. 3 h, read-out: Test Example 1 WT EZH1 IC50.
T2 construct: purchased BPS 51006
T2 sequence (Q92800 2-747 limits assumed): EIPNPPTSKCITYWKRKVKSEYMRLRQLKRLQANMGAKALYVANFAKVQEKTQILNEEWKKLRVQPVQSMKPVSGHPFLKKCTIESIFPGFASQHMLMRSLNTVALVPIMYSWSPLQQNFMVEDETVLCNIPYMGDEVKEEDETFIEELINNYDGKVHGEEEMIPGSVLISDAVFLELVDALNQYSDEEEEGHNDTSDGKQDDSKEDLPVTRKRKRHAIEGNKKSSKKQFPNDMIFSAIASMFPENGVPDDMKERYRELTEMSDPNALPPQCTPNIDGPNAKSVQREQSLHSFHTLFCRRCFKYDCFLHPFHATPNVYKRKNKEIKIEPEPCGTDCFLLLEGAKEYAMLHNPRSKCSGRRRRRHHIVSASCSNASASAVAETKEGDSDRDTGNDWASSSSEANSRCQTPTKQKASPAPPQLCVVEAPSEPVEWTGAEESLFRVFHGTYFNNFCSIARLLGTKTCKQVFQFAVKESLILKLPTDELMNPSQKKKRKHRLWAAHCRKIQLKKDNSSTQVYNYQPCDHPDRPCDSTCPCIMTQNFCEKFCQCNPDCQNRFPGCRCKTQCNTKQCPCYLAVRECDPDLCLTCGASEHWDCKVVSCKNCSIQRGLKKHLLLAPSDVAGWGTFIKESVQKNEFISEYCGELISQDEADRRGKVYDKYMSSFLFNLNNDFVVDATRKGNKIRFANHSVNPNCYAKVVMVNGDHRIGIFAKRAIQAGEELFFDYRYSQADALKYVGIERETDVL
T2 sequence (Q15022 2-739 partner limits assumed): as the sequence (Q15022 2-739 partner limits assumed) above
T2 sequence (O75530 2-441 partner limits assumed): as the sequence (O75530 2-441 partner limits assumed) above
Type: biochemical
Description: as §1, §2

Row | Compound | IC50 [nM]
13 | Cc1cc(C)c(CNC(=O)c2cc(Cl)c3c(c2C)O[C@@H](C2CCN(CC4CC4)CC2)CO3)c(=O)[nH]1 [Compound 90] | 945
14 | COc1cc(C)[nH]c(=O)c1CNC(=O)c1cc(Cl)c2c(c1C)O[C@@H]([C@H]1CC[C@@H](N3CC4COCC4C3)CC1)CO2 (stereo partly drawn) [Compound 95] | 227
15 | COCCOC1CN([C@H]2CC[C@H]([C@H]3COc4c(Cl)cc(C(=O)NCc5c(OC)cc(C)[nH]c5=O)c(C)c4O3)CC2)C1 [Compound 102] | 655
16 | COc1cc(C)[nH]c(=O)c1CNC(=O)c1cc(Cl)c2c(c1C)O[C@@H]([C@H]1CC[C@H](N3CC4(CC4)C3)CC1)CO2 [Compound 112] | 49.9
17 | COc1cc(C)[nH]c(=O)c1CNC(=O)c1cc(Cl)c2c(c1C)O[C@@H]([C@H]1CC[C@H](N3CC4CC4C3)CC1)CO2 (stereo partly drawn) [Compound 114] | 267
18 | COc1cc(C)[nH]c(=O)c1CNC(=O)c1cc(Cl)c2c(c1C)O[C@@H]([C@H]1CC[C@H](N3CC4C(C3)C4OC)CC1)CO2 (stereo partly drawn) [Compound 116] | 156
19 | COc1cc(C)[nH]c(=O)c1CNC(=O)c1cc(Cl)c2c(c1C)O[C@@H](C1CCC(OCCF)CC1)CO2 (stereo partly drawn) [Compound 123] | 84
20 | COc1cc(C)[nH]c(=O)c1CNC(=O)c1cc(Cl)c2c(c1Cl)O[C@@H]([C@H]1CC[C@H](N3CC(OC)C3)CC1)CO2 [Compound 152] | 126
21 | CSc1cc(C)[nH]c(=O)c1CNC(=O)c1cc(C#N)c2c(c1C)O[C@@H]([C@H]1CC[C@H](N3CC(OC4CC4)C3)CC1)CO2 [Compound 160] | 31.6
22 | CSc1cc(C)[nH]c(=O)c1CNC(=O)c1cc(C#N)c2c(c1C)O[C@@H]([C@H]1CC[C@H](N3CC(OCCF)C3)CC1)CO2 [Compound 162] | 29.3
23 | [2H]C([2H])([2H])Sc1cc(C)[nH]c(=O)c1CNC(=O)c1cc(Cl)c2c(c1C)O[C@@H](C1CCC(N3CC(OC)C3)CC1)CO2 (stereo partly drawn) [Compound 178] | 17.5

Continued, values first:

Row | IC50 [nM] | Compound
24 | 13.5 | COC1C2CN([C@H]3CC[C@H]([C@H]4COc5c(Cl)cc(C(=O)NCc6c(SC)cc(C)[nH]c6=O)c(C)c5O4)CC3)CC21 (stereo partly drawn) [Compound 44]
25 | 132 | CON=C1CCC([C@H]2COc3c(Cl)cc(C(=O)NCc4c(C)cc(C)[nH]c4=O)c(C)c3O2)CC1 (stereo partly drawn) [Compound 93]
26 | 167 | COc1cc(C)[nH]c(=O)c1CNC(=O)c1cc(Cl)c2c(c1C)O[C@@H]([C@H]1CC[C@H](N3CC4COCC4C3)CC1)CO2 (stereo partly drawn) [Compound 96]
27 | 69.3 | COCCN(C)[C@H]1CC[C@H]([C@H]2COc3c(Cl)cc(C(=O)NCc4c(OC)cc(C)[nH]c4=O)c(C)c3O2)CC1 [Compound 108]
28 | 27.3 | COc1cc(C)[nH]c(=O)c1CNC(=O)c1cc(Cl)c2c(c1C)O[C@@H]([C@H]1CC[C@@H](N3CC4(CC4)C3)CC1)CO2 [Compound 111]
29 | 190 | Cc1cc(C2CC2)c(CNC(=O)c2cc(Cl)c3c(c2C)O[C@@H]([C@H]2CC[C@@H](N(C)C)CC2)CO3)c(=O)[nH]1 [Compound 157]
30 | 3440 | Cc1cc(C2CC2)c(CNC(=O)c2cc(Cl)c3c(c2C)O[C@@H]([C@H]2CC[C@H](N(C)C)CC2)CO3)c(=O)[nH]1 [Compound 158]
